From patent US20230057602A1, “METHODS OF TREATMENT WITH ANTIBODIES AGAINST BCMA AND CD3” (BRISTOL-MYERS SQUIBB COMPANY, priority 2019, published 2023)

Key:
[1] = tested on: Relapsed/Refractory Multiple Myeloma (RRMM) patients; assay: Clinical study of CC-93269 in RRMM: efficacy (IMWG response, MRD); format: in vivo, human
Procedure: This study involved 19 RRMM patients who had received ≥3 prior regimens without prior BCMA-directed therapy. Prior treatments included autologous stem cell transplantation, allogenic stem cell transplantation, lenalidomide, pomalidomide, bortezomib, carfilzomib, and daratumumab (DARA). All patients had MM refractory to their last line of therapy.
CC-93269 (42-TCBcv), a bispecific antibody that specifically binds to BCMA bivalently and CD3 monovalently, was administered intravenously over 2 hours on Days 1, 8, 15, and 22 for Cycles 1-3; Days 1 and 15 for Cycles 4-6; and on Day 1 for Cycle 7 and beyond, all in 28-day cycles. 14 patients received a fixed dose of CC-93269 at each of the intervals: 0.15 mg (Cohort 1, n=1), 0.5 mg (Cohort 2, n=1), 1.5 mg (Cohort 3, n=1), 3 mg (Cohort 4, n=4), 6 mg (Cohort 5, n=3) or 10 mg (Cohort 6, n=4). 5 patients received a starting dose of 6 mg on Cycle 1 Day 1, followed by a dose of 10 mg on Cycle 1 Day 8 and thereafter (Cohort 7, n=5).
Response was assessed using the International Myeloma Working Group (IMWG) Uniform Response Criteria (Rajkumar, 2011a; Kumar, 2016) at every cycle starting on Cycle 2 Day 1 and at the end of treatment. Minimal residual disease (MRD) was assessed by EuroFlow evaluation and NGS (next-generation sequencing) if evaluable. MRD negativity was reported only if a minimum sensitivity of <1 tumour cell in 10^5 nucleated cells was achieved. […]

[2] = tested on: H929 BCMA-expressing myeloma cell line; assay: CC-93269-induced redirected lysis of H929; format: cell-based, human; conditions: E:T 1:1, 72 hours, 3 donors
Procedure: (§1) Four BCMA-expressing tumour cell lines purchased from ATCC (Manassa, Va.) (Multiple Myeloma cell lines: BCMA high-H-929 (catalog number CRL-9068), BCMA mid-SKMM2 and -MM.1S (catalog number ACC-430) and BCMA low-KMS12-PE (catalog number ACC-606)) were co-cultured with T-cells from 3 independent healthy donors (Bloodworks Northwest, Seattle, Wash.), at a E:T ratio of 1:1, i.e. 1 T cell: 1 myeloma cell. […]; 0.033-2.6 nM) for 72 hours.
(§2) FIG. 7 illustrates CC-93269-induced redirected lysis of BCMA+ tumour cell lines following co-culture with donor T cells from one healthy donor; results from all 3 independent healthy donors are summarised in Table 19. In 96-well round bottom plates and a final volume of 100 μL, 1×10^4 CellTrace Violet-labeled T-cells were plated with 1×10^4 CellTrace CFSE-labeled target cells, in the presence of varying concentrations of CC-93269 in combination with varying concentrations of dexamethasone (7-point dose response). The cocultures were incubated at 37° C. with 5% CO2. […] One-hundred percent viability was determined by the absolute cell count of live tumour cells at no addition of CC-93269 or dexamethasone; an absolute cell count of 0 live cells was used to define 100% killing of tumour cells. […] The IC50 values were calculated using non-linear regression analysis, sigmoidal dose-response using GraphPad Prism (version 5.0) software.

[3] = tested on: MM1S BCMA-expressing myeloma cell line; assay: CC-93269-induced redirected lysis of MM1S; format: cell-based, human; conditions: E:T 1:1, 72 hours, 3 donors
Procedure: as §1, §2

[4] = tested on: SKMM2 BCMA-expressing myeloma cell line; assay: CC-93269-induced redirected lysis of SKMM2; format: cell-based, human; conditions: E:T 1:1, 72 hours, 3 donors
Procedure: as §1, §2

[5] = tested on: KMS12-PE BCMA-expressing myeloma cell line; assay: CC-93269-induced redirected lysis of KMS12-PE; format: cell-based, human; conditions: E:T 1:1, 72 hours, 3 donors
Procedure: as §1, §2

[6] = 12 patients treated with ≥6 mg (Cohort 5 to 7)
[7] = Patients Treated with <6 mg (n = 7)
[8] = Patients Treated with up to 10 mg (n = 9)
[9] = Patients Treated with ≥6 mg (n = 12)
[10] = Patients treated with up to 3 mg (n = 7)
[11] = Patients treated with up to 6 mg (n = 14)
[12] = patients treated with ≥6 mg (Cohort 5 to 7)

CC-93269: bispecific antibody that specifically binds to BCMA bivalently and CD3 monovalently; SEQ ID NO:48, 55, 56, 57 (2×)
responses ([1]; 4 patients of Cohort 4, consecutive doses of 3 mg): No responses were observed
preliminary overall response rate ([1]; 9 subjects, maintenance dose of 10 mg (Cohorts 6 and 7)): 88.9%
MRD negativity [1, 6]: 75.0%
overall response rate (partial response or better) [1, 6]: 83.3%
stringent complete response (sCR) [1, 6]: 33.3%
very good partial response (VGPR) or better [1, 6]: 58.3%
Best response: Minimal response (MR) ([1]; All Patients (N =19)): 0 (0) n (%)
Best response: Not evaluable ([1]; All Patients (N =19)): 2 (10.5) n (%)
Best response: Partial response (PR) ([1]; All Patients (N =19)): 3 (15.8) n (%)
Best response: Progressive disease (PD) ([1]; All Patients (N =19)): 3 (15.8) n (%)
Best response: Stringent complete response + complete response (sCR + CR) ([1]; All Patients (N =19)): 4 (21.1) n (%)
Best response: Very good partial response (VGPR) ([1]; All Patients (N =19)): 3 (15.8) n (%)
VGPR or better ([1]; All Patients (N =19)): 7 (36.8) n (%)
Overall response (PR or better) ([1]; All Patients (N =19), Cohorts 1-7): 10 (52.6) n (%)
response compared with Cohorts 1 to 4 (maintenance dose ≤3 mg) ([1]; Cohorts 8 and 9, starting dose 3 mg then maintenance dose ≥6 mg): improved response
Best response: Minimal response (MR) [1, 7]: 0 (0) n (%)
Best response: Not evaluable [1, 7]: 1 (14.3) n (%)
Best response: Partial response (PR) [1, 7]: 0 (0) n (%)
Best response: Progressive disease (PD) [1, 7]: 2 (28.6) n (%)
Best response: Stringent complete response + complete response (sCR + CR) [1, 7]: 0 (0) n (%)
Best response: Very good partial response (VGPR) [1, 7]: 0 (0) n (%)
VGPR or better [1, 7]: 0 (0) n (%)
Overall response (PR or better) ([1]; Patients Treated with <6 mg (n = 7), Cohorts 1-7): 0 (0) n (%)
Best response: Minimal response (MR) [1, 8]: 0 n (%)
Best response: Not evaluable [1, 8]: 1 (11.1) n (%)
Best response: Partial response (PR) [1, 8]: 1 (11.1) n (%)
Best response: Progressive disease (PD) [1, 8]: 0 n (%)
Best response: Stringent complete response + complete response (sCR + CR) [1, 8]: 4 (44.4) n (%)
Best response: Very good partial response (VGPR) [1, 8]: 3 (33.3) n (%)
Overall response (PR or better) ([1]; Patients Treated with up to 10 mg (n = 9), Cohorts 1-9): 8 (88.9) n (%)
Best response: Minimal response (MR) [1, 9]: 0 (0) n (%)
Best response: Not evaluable [1, 9]: 1 (8.3) n (%)
Best response: Partial response (PR) [1, 9]: 3 (25.0) n (%)
Best response: Progressive disease (PD) [1, 9]: 1 (8.3) n (%)
Best response: Stringent complete response + complete response (sCR + CR) [1, 9]: 4 (33.3) n (%)
Best response: Very good partial response (VGPR) [1, 9]: 3 (25.0) n (%)
MRD negative [1, 9]: 9 (75.0) n (%)
VGPR or better [1, 9]: 7 (58.3) n (%)
Overall response (PR or better) ([1]; Patients Treated with ≥6 mg (n = 12), Cohorts 1-7): 10 (83.3) n (%)
Best response: Minimal response (MR) [1, 10]: 0 (0) n (%)
Best response: Not evaluable [1, 10]: 1 (14.3) n (%)
Best response: Partial response (PR) [1, 10]: 0 (0) n (%)
Best response: Progressive disease (PD) [1, 10]: 2 (28.6) n (%)
Best response: Stringent complete response + complete response (sCR + CR) [1, 10]: 0 (0) n (%)
Best response: Very good partial response (VGPR) [1, 10]: 0 (0) n (%)
Overall response (PR or better) ([1]; Patients treated with up to 3 mg (n = 7), Cohorts 1-9): 0 (0) n (%)
Best response: Minimal response (MR) [1, 11]: 0 (0) n (%)
Best response: Not evaluable [1, 11]: 3 (21.4) n (%)
Best response: Partial response (PR) [1, 11]: 3 (21.4) n (%)
Best response: Progressive disease (PD) [1, 11]: 5 (35.7) n (%)
Best response: Stringent complete response + complete response (sCR + CR) [1, 11]: 1 (7.1) n (%)
Best response: Very good partial response (VGPR) [1, 11]: 1 (7.1) n (%)
Overall response (PR or better) ([1]; Patients treated with up to 6 mg (n = 14), Cohorts 1-9): 5 (35.7) n (%)
preliminary overall response rate ([1]; patients treated with up to 6 mg (Cohorts 5, 8, and 9)): 35.7%
median time to response [1, 12]: 4.2 weeks
time to response, range [1, 12]: 4.0-13.1 weeks
% live tumour cells, Mean ([2]; 1 μM Dex co-treatment): 2.11%
% live tumour cells, Mean ([2]; DMSO): 1.61%
% live tumour cells, Mean ([3]; 1 μM Dex co-treatment): 0.98%
% live tumour cells, Mean ([3]; DMSO): 1.5%
% live tumour cells, Mean ([4]; 1 μM Dex co-treatment): 3.5%
% live tumour cells, Mean ([4]; DMSO): 2.68%
% live tumour cells, Mean ([5]; 1 μM Dex co-treatment): 5.8%
% live tumour cells, Mean ([5]; DMSO): 3.71%
